Test results reported in patent US10960020B2, “Modulation of PCSK9 and LDLR through DRP1 inhibition” (THE BRIGHAM AND WOMEN'S HOSPITAL, INC., priority 2016, dated 2021).

How the values were obtained:
[1] = test system: cellular PCSK9 protein; assay: Western blot, primary human hepatocyte cellular PCSK9 protein; assay type: cell-based; conditions: primary human hepatocytes, Mdivi-1 50 μM, 24 hours
[2] = test system: HNF1A, SREBP-2, and SREBP-1a; assay: Real time PCR, PCSK9 regulating transcription factors; assay type: cell-based; conditions: HepG2 and primary human hepatocytes, Mdivi-1 50 μM, 24 hours
Description: (§1) Human cells and mouse liver was homogenized with TriZolTM (Life Technologies, Grand Island, N.Y.) to isolate RNA. QuantiTectTM Reverse Transcription Kit (Qiagen, Hilden, Germany) was used for reverse transcription on total RNA. cDNA was generated using the Quanta gScriptTM cDNA Synthesis Kit (Bioscience Inc., Gaithersburg, Md.). mRNA levels were quantified on a 7900HT real-time PCR system (Thermo Fisher Scientific) using TaqManTM real-time PCR with the following probes: Hs02758991_g1 (human GAPDH); Mm99999915_g1 (mouse Gapdh); Hs00236329 m1 (human BCL2L1); Hs00247147_m1 (human DRP1); Hs00545399_m1 (human PCSK9); Mm01263610_m1 (mouse Pcsk9); Hs00168352_m1 (human HMGCR); […]); Hs00181192_m1 (human LDLR); Mm00440169_m1 (mouse Ldlr); Hs01088691_m1 (human SREBP1); Mm00550338_m1 (mouse Srebp1); Hs00231674_m1 (human SREBP1a); custom primer (human SREBP1c); Hs01081784_m1 (human SREBP2); Mm01306292_m1 (mouse Srebp2); Hs01005622_m1 (human FASN); […]); Hs00167041_m1 (human HNF1A); Mm00493434_m1 (mouse Hnf1a); Hs00171168 (human APOE); Hs01059118_m1 (human ABCA1); Hs01103582_s1 (human JUN). Mouse SREBP-1c was analyzed by SYBERTM green PCR with the following primers: [NT] All expression levels were normalized to GAPDH using the ΔΔCT method.

[3] = test system: SREBP-1c mRNA; assay: Real time PCR, HepG2 SREBP-1c mRNA; assay type: cell-based, human; conditions: HepG2, Mdivi-1 50 μM, 24 hours
Description: as §1

[4] = test system: PCSK9 secretion in primary human hepatocytes; assay: Secreted PCSK9 ELISA, primary human hepatocytes; assay type: cell-based; conditions: Mdivi-1 50 μM, 24 hours
Experimental: Pitavastatin and T0901317 were synthesized and provided by Kowa Company, Ltd. (Tokyo, Japan), and treated at a dose of 1 μM in all experiments. DMSO (vehicle; final concentration 0.01%) and Mdivi-1 (>99.85% purity) were purchased from Sigma (St. Louis, Mo.). Mdivi-1 in DMSO vehicle was added at a concentration of 50 μM in all experiments. Mdivi-1 in DMSO vehicle was added to cell culture media in a 50 mL tube, vortexed hard for several minutes and then incubated at 37° C. prior to adding to cells to ensure the compound was fully solubilized.
HepG2 cells were obtained from ATCC (Manassas, Va.), and cultured in EMEM with L-glutamine (ATCC) medium, 1% pen/strep, with and without 10% FBS (Thermo Fisher Scientific, Waltham, Mass.) in 12-well plates (Corning, Durham, N.C.). HepG2 cells were plated at a density of 60-70% prior to treatment to avoid clumping. […] Cell viability was assessed by Trypan Blue exclusion using live/dead cell counting on a Countess™ II LT automated cell counter (Thermo Fisher Scientific).
Mouse serum PCSK9 was measured using the mouse proprotein convertase 9/PCSK9 quantikine ELISA kit (MPC900, R&D Systems, Minneapolis, Minn.), and human liver cell secreted PCSK9 using the human proprotein convertase 9/PCSK9 DuoSet ELISA (DY3888, R&D Systems), both according to manufacturers' protocols.

[5] = test system: LDLR protein; assay: Western blot, HepG2 LDLR protein; assay type: cell-based, human; conditions: HepG2, 24 hours; Mdivi-1 50 μM, pitavastatin 1 μM, T0901317 1 μM
[6] = test system: HepG2 cells; assay: Mitochondrial membrane potential by TMRE, HepG2; assay type: cell-based, human; conditions: HepG2, Mdivi-1 50 μM, 24 hours
Experimental: Mitochondrial membrane potential was assessed by TMRE reagent (Abcam) as previously described^21.

`COc1cc(-n2c(S)nc3ccccc3c2=O)c(Cl)cc1Cl` [Mdivi-1, 3-(2,4-Dichloro-5-methoxyphenyl)-2,3-dihydro-2-thioxo-4(1H)-quinazolinone] was tested, and the “cellular PCSK9 protein” value [1] was “without altering”, the “Expression of HNF1A, SREBP-2, and SREBP-1a” value [2] was “not changed” and the “SREBP-1c mRNA” value [3] was “strongly reduced”. The “PCSK9 secretion by ELISA” value [4] was “reduced”, the “HepG2 LDLR protein increase” value [5] was 5.8 fold and the “Mitochondrial function, assessed by mitochondrial membrane potential” value [6] was “not noticeably different”.
